Measurements as given in EP4745135A1 (Gluetacs Therapeutics (Shanghai) Co., Ltd., priority 2023, dated 2025).

Key:
[1] = molecular target: T1, CK1α (Homo sapiens, UniProt P48729+Q96SW2); test: Western blot, degradation of substrate protein in hPBMCs; format: cell-based; conditions: Western blot, 24 hours of compound treatment, compounds tested at 50 nM and 500 nM (concentration for the table not stated)
T1 construct: effects of the compounds of the present disclosure on the expression of target proteins in cells; endogenous in cells; host or cells: human PBMCs (Milecell Biotechnologies)
T1 sequence (P48729 whole entry): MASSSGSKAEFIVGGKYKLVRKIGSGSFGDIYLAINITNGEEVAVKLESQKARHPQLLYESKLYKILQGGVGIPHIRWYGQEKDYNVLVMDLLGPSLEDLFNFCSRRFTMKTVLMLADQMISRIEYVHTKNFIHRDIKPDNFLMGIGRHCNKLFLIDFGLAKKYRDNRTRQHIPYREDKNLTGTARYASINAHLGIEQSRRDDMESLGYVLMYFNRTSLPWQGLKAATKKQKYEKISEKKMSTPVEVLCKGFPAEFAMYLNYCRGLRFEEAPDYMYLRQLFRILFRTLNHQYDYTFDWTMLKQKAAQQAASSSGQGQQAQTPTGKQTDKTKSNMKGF
T1 sequence (Q96SW2 whole entry): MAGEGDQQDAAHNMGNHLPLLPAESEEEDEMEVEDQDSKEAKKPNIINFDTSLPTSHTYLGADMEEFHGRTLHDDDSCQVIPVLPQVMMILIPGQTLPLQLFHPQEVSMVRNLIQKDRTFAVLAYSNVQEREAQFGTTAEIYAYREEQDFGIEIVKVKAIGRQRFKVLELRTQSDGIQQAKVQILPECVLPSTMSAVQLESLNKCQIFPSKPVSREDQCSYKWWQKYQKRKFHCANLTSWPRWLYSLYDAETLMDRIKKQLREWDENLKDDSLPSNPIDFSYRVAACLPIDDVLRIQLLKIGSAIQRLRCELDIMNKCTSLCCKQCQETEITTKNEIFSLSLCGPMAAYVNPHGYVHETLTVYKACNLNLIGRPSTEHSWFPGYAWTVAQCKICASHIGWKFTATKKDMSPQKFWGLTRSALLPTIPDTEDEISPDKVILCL
T1 sequence (Q16531 whole entry partner): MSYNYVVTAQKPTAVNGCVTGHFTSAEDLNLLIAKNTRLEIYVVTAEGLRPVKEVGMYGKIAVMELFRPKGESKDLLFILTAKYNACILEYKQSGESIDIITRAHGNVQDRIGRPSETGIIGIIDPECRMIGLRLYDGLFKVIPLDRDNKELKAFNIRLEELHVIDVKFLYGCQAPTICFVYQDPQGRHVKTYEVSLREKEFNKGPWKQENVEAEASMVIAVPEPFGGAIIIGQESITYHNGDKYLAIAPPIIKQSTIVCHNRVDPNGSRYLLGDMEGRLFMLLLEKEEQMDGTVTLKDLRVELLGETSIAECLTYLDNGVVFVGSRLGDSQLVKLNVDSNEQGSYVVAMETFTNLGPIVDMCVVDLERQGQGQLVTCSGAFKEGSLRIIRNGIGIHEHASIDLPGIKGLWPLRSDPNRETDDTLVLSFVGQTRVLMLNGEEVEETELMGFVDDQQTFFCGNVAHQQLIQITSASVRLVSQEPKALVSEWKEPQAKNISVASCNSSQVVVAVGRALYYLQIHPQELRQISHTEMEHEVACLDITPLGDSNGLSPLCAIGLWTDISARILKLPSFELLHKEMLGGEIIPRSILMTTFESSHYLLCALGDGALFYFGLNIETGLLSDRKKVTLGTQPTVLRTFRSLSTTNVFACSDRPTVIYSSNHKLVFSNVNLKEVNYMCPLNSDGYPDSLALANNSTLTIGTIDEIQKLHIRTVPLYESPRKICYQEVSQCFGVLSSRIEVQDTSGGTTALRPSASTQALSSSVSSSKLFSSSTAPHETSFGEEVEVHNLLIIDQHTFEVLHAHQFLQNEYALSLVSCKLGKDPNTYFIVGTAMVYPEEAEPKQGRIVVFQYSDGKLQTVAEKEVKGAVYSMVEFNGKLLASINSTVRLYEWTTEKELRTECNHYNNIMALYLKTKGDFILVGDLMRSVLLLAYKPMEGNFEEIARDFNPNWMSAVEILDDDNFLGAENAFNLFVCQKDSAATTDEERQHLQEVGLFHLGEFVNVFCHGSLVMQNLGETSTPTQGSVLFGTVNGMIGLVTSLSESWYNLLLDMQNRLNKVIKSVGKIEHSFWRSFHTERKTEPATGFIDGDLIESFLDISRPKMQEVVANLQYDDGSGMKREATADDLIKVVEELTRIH

[2] = molecular target: T2, IKZF1 (Homo sapiens, UniProt Q13422+Q96SW2); test: as above; format: cell-based; conditions: Western blot, 24 hours of compound treatment, compounds tested at 50 nM and 500 nM (concentration for the table not stated)
T2 construct: effects of the compounds of the present disclosure on the expression of target proteins in cells; endogenous in cells; host or cells: human PBMCs (Milecell Biotechnologies)
T2 sequence (Q13422 whole entry): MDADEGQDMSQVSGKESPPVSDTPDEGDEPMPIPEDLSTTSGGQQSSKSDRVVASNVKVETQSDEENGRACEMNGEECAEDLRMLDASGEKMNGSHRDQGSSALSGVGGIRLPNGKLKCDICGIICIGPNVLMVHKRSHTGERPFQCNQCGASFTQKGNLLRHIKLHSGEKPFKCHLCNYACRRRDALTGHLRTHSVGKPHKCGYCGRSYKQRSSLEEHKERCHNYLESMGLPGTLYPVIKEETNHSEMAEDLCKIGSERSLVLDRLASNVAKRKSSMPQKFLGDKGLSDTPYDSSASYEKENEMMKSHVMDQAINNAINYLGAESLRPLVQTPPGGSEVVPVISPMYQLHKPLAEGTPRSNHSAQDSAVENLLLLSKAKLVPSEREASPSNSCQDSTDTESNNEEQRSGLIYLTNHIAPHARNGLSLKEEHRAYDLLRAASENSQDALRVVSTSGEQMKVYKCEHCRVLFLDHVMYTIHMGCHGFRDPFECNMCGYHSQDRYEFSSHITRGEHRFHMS
T2 sequence (Q96SW2 whole entry): as the sequence (Q96SW2 whole entry) above
T2 sequence (Q16531 whole entry partner): as the sequence (Q16531 whole entry partner) above

[3] = molecular target: T3, IKZF2 (Homo sapiens, UniProt Q96SW2+Q9UKS7); test: as above; format: cell-based; conditions: Western blot, 24 hours of compound treatment, compounds tested at 50 nM and 500 nM (concentration for the table not stated)
T3 construct: effects of the compounds of the present disclosure on the expression of target proteins in cells; endogenous in cells; host or cells: human PBMCs (Milecell Biotechnologies)
T3 sequence (Q9UKS7 whole entry): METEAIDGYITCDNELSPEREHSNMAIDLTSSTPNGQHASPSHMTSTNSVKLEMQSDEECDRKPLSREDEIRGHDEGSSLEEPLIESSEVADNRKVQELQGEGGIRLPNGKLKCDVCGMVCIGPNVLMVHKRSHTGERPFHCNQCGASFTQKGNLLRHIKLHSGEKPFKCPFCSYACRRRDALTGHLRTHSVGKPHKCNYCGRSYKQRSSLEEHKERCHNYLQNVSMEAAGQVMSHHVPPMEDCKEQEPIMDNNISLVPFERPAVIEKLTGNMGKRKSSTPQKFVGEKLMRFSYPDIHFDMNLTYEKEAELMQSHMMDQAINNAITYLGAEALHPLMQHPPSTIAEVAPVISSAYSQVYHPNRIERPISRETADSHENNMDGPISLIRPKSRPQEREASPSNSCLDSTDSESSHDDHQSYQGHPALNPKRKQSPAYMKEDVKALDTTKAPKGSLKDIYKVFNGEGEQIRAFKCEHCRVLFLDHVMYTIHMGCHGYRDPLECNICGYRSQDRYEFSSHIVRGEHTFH
T3 sequence (Q96SW2 whole entry): as the sequence (Q96SW2 whole entry) above
T3 sequence (Q16531 whole entry partner): as the sequence (Q16531 whole entry partner) above

[4] = molecular target: T4, IKZF3 (Homo sapiens, UniProt Q96SW2+Q9UKT9); test: as above; format: cell-based; conditions: Western blot, 24 hours of compound treatment, compounds tested at 50 nM and 500 nM (concentration for the table not stated)
T4 construct: effects of the compounds of the present disclosure on the expression of target proteins in cells; endogenous in cells; host or cells: human PBMCs (Milecell Biotechnologies)
T4 sequence (Q9UKT9 whole entry): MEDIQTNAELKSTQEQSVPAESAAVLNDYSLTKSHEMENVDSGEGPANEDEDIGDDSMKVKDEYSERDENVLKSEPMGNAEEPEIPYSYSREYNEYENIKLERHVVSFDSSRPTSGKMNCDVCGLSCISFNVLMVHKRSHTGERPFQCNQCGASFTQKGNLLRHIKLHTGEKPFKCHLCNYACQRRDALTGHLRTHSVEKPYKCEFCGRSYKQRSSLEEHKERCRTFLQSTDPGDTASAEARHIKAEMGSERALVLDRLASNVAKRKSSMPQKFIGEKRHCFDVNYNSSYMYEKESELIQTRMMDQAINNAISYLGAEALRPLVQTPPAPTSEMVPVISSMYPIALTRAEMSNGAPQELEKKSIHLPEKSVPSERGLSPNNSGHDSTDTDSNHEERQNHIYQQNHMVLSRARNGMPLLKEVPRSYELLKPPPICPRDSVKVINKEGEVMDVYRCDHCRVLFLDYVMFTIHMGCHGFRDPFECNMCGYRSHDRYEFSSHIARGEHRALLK
T4 sequence (Q96SW2 whole entry): as the sequence (Q96SW2 whole entry) above
T4 sequence (Q16531 whole entry partner): as the sequence (Q16531 whole entry partner) above

[5] = molecular target: T5, WEE1 (Homo sapiens, UniProt P30291+Q96SW2); test: as above; format: cell-based; conditions: Western blot, 24 hours of compound treatment, compounds tested at 50 nM and 500 nM (concentration for the table not stated)
T5 construct: effects of the compounds of the present disclosure on the expression of target proteins in cells; endogenous in cells; host or cells: human PBMCs (Milecell Biotechnologies)
T5 sequence (P30291 whole entry): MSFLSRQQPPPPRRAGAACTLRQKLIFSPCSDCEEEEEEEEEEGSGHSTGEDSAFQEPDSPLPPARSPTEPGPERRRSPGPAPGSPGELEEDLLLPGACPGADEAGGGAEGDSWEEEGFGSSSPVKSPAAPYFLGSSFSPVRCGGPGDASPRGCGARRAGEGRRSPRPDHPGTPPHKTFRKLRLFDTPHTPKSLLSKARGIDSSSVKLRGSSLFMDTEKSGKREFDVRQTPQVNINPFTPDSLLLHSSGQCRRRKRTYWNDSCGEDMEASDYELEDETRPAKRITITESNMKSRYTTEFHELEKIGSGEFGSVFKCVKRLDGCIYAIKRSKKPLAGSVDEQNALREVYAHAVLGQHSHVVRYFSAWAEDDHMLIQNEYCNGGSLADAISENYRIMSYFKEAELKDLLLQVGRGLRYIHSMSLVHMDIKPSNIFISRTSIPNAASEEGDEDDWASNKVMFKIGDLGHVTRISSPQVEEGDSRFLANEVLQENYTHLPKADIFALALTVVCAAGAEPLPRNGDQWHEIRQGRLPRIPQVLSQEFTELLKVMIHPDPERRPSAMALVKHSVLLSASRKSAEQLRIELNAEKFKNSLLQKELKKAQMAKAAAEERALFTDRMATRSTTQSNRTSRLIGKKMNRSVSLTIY
T5 sequence (Q96SW2 whole entry): as the sequence (Q96SW2 whole entry) above
T5 sequence (Q16531 whole entry partner): as the sequence (Q16531 whole entry partner) above

[6] = test system: GSPT1; test: as above; format: cell-based, Human; conditions: Western blot, 24 hours of compound treatment, compounds tested at 50 nM and 500 nM (concentration for the table not stated)
[7] = molecular target: T6, human Cereblon WT GST-tagged protein (Homo sapiens, UniProt Q96SW2); test: CRBN-binding affinity, HTRF (CEREBLON BINDING kit); conditions: for inhibition at 0.5 µM: read-out: Inhibition Rate at 0.5 µM (%); for inhibition at 2 µM: read-out: Inhibition Rate at 2 µM (%)
T6 construct: purchased CISBIO 64BDCRBNPEH
T6 sequence (Q96SW2 whole entry): as the sequence (Q96SW2 whole entry) above

Row | inhibition at 0.5 µM [7] [%] | inhibition at 2 µM [7] [%] | SMILES | CK1α substrate protein remaining % [1] | IKZF 1 substrate protein remaining % [2] | IKZF2 substrate protein remaining % [3] | IKZF3 substrate protein remaining % [4] | Wee1 substrate protein remaining % [5] | GSPT1 substrate protein remaining % [6]
1 | 60 to 80 | 80 to 100 | O=C1CCC(N2Cc3c(CN4CCN(c5cccnn5)CC4)cccc3C2=S)C(=O)N1 (centres unmarked) [GT-08810, 3-(4-((4-(pyridazin-3-yl)piperazin-1-yl)methyl)-1-thioxoisoindolin-2-yl)piperidine-2,6-dione] | B (80%< substrate protein remaining %≤ 100%) | B (80%< substrate protein remaining %≤ 100%) | B (80%< substrate protein remaining %≤ 100%) | B (80%< substrate protein remaining %≤ 100%) | A (0% ≤ substrate protein remaining % ≤ 80%) | B (80%< substrate protein remaining %≤ 100%)
2 | 60 to 80 | 80 to 100 | O=C1CCC(N2Cc3c(CN4CCN(c5ncccn5)CC4)cccc3C2=S)C(=O)N1 (centres unmarked) [GT-08812, 3-(4-((4-(pyrimidin-2-yl)piperazin-1-yl)methyl)-1-thioxoisoindolin-2-yl)piperidine-2,6-dione] | B (80%< substrate protein remaining %≤ 100%) | B (80%< substrate protein remaining %≤ 100%) | B (80%< substrate protein remaining %≤ 100%) | B (80%< substrate protein remaining %≤ 100%) | A (0% ≤ substrate protein remaining % ≤ 80%) | B (80%< substrate protein remaining %≤ 100%)
3 | 60 to 80 | 80 to 100 | O=C1CCC(N2Cc3c(CN4CCN(c5cnccn5)CC4)cccc3C2=S)C(=O)N1 (centres unmarked) [GT-08813, 3-(4-((4-(pyrazin-2-yl)piperazin-1-yl)methyl)-1-thioxoisoindolin-2-yl)piperidine-2,6-dione] | B (80%< substrate protein remaining %≤ 100%) | B (80%< substrate protein remaining %≤ 100%) | B (80%< substrate protein remaining %≤ 100%) | B (80%< substrate protein remaining %≤ 100%) | A (0% ≤ substrate protein remaining % ≤ 80%) | B (80%< substrate protein remaining %≤ 100%)
4 | 53 to 60 | 80 to 100 | O=C1CCC(N2Cc3c(CN4CCN(c5noc6ccncc56)CC4)cccc3C2=S)C(=O)N1 (centres unmarked) [GT-08838, 3-(4-((4-(isoxazolo[4,5-c]pyridin-3-yl)piperazin-1-yl)methyl)-1-thioxoisoindolin-2-yl)piperidine-2,6-dione] | B (80%< substrate protein remaining %≤ 100%) | B (80%< substrate protein remaining %≤ 100%) | B (80%< substrate protein remaining %≤ 100%) | B (80%< substrate protein remaining %≤ 100%) | A (0% ≤ substrate protein remaining % ≤ 80%) | A (0% ≤ substrate protein remaining % ≤ 80%)

The next lines start with the molecule.

Row | SMILES | inhibition at 0.5 µM [7] [%] | inhibition at 2 µM [7] [%] | CK1α substrate protein remaining % [1] | IKZF 1 substrate protein remaining % [2] | IKZF2 substrate protein remaining % [3] | IKZF3 substrate protein remaining % [4] | Wee1 substrate protein remaining % [5] | GSPT1 substrate protein remaining % [6]
5 | O=C1CCC(N2Cc3c(CN4CCN(c5ccc(Cl)nn5)CC4)cccc3C2=S)C(=O)N1 (centres unmarked) [GT-08811, 3-(4-((4-(6-chloropyridazin-3-yl)piperazin-1-yl)methyl)-1-thioxoisoindolin-2-yl)piperidine-2,6-dione] | 60 to 80 | 80 to 100 | A (0% ≤ substrate protein remaining % ≤ 80%) | A (0% ≤ substrate protein remaining % ≤ 80%) | A (0% ≤ substrate protein remaining % ≤ 80%) | A (0% ≤ substrate protein remaining % ≤ 80%) | A (0% ≤ substrate protein remaining % ≤ 80%) | A (0% ≤ substrate protein remaining % ≤ 80%)
6 | O=C1CCC(N2Cc3c(CN4CCN(c5ncnc(Cl)c5Cl)CC4)cccc3C2=S)C(=O)N1 (centres unmarked) [GT-08814, 3-(4-((4-(5,6-dichloropyrimidin-4-yl)piperazin-1-yl)methyl)-1-thioxoisoindolin-2-yl)piperidine-2,6-dione] | 60 to 80 | 80 to 100 | B (80%< substrate protein remaining %≤ 100%) | B (80%< substrate protein remaining %≤ 100%) | A (0% ≤ substrate protein remaining % ≤ 80%) | B (80%< substrate protein remaining %≤ 100%) | B (80%< substrate protein remaining %≤ 100%) | B (80%< substrate protein remaining %≤ 100%)
7 | O=C1CCC(N2Cc3c(CN4CCN(c5cnnc(Cl)c5Cl)CC4)cccc3C2=S)C(=O)N1 (centres unmarked) [GT-08815, 3-(4-((4-(5,6-dichloropyridazin-4-yl)piperazin-1-yl)methyl)-1-thioxoisoindolin-2-yl)piperidine-2,6-dione] | 60 to 80 | 80 to 100 | B (80%< substrate protein remaining %≤ 100%) | B (80%< substrate protein remaining %≤ 100%) | B (80%< substrate protein remaining %≤ 100%) | B (80%< substrate protein remaining %≤ 100%) | A (0% ≤ substrate protein remaining % ≤ 80%) | B (80%< substrate protein remaining %≤ 100%)
8 | O=C1CCC(N2Cc3c(CN4CCN(c5noc6cc(F)ccc56)CC4)cccc3C2=S)C(=O)N1 (centres unmarked) [GT-08818, 3-(4-((4-(6-fluorobenzo[d]isoxazol-3-yl)piperazin-1-yl)methyl)-1-thioxoisoindolin-2-yl)piperidine-2,6-dione] | 53 to 60 | 60 to 80 | B (80%< substrate protein remaining %≤ 100%) | B (80%< substrate protein remaining %≤ 100%) | B (80%< substrate protein remaining %≤ 100%) | B (80%< substrate protein remaining %≤ 100%) | A (0% ≤ substrate protein remaining % ≤ 80%) | A (0% ≤ substrate protein remaining % ≤ 80%)
9 | O=C1CCC(N2Cc3c(CN4CCN(c5nsc6cc(F)ccc56)CC4)cccc3C2=S)C(=O)N1 (centres unmarked) [GT-08839, 3-(4-((4-(6-fluorobenzo[d]isothiazol-3-yl)piperazin-1-yl)methyl)-1-thioxoisoindolin-2-yl)piperidine-2,6-dione] | 60 to 80 | 80 to 100 | B (80%< substrate protein remaining %≤ 100%) | B (80%< substrate protein remaining %≤ 100%) | B (80%< substrate protein remaining %≤ 100%) | B (80%< substrate protein remaining %≤ 100%) | A (0% ≤ substrate protein remaining % ≤ 80%) | B (80%< substrate protein remaining %≤ 100%)
10 | O=C1CCC(N2Cc3c(CN4CCN(c5c[nH]c6ncccc56)CC4)cccc3C2=S)C(=O)N1 (centres unmarked) [GT-08841, 3-(4-((4-(1H-pyrrolo[2,3-b]pyridin-3-yl)piperazin-1-yl)methyl)-1-thioxoisoindolin-2-yl)piperidine-2,6-dione] | 60 to 80 | 80 to 100 | B (80%< substrate protein remaining %≤ 100%) | B (80%< substrate protein remaining %≤ 100%) | B (80%< substrate protein remaining %≤ 100%) | B (80%< substrate protein remaining %≤ 100%) | A (0% ≤ substrate protein remaining % ≤ 80%) | A (0% ≤ substrate protein remaining % ≤ 80%)
